Laboratory results: patent US11357774B2, “Use of a quinoline sulfonyl compound for treatment of inflammation, inflammatory disorders, autoimmune disorders and malaria” (priority 2019, dated 2022)

What was measured:
[1] = system: IL-6 secretion in SW-982 synovial cells; assay: IL-6 secretion in IL-1β-stimulated SW-982 synovial cells (ELISA); assay type: cell-based, human; details: SW-982, IL-1β 1 ng/mL, 6 hours; VR23 10 μM, HCQ 60 μM
Protocol: The mean±SEM (n=2) values were determined by a Dunnett's test.
(§1) The enzyme-linked immunosorbent assay (ELISA) is a quantitative measurement based on sandwich-based enzyme linking, using a protein-specific capture antibody to determine the levels of single or multiple chemokines and cytokines.
The measurement was carried out with a single-analyte ELISA. […] While not wishing to be limited by theory, cytokine IL-6 is strongly implicated to the progress of rheumatoid arthritis^29.

HFLS-RA cell migration = assay: Cell migration assay (matrigel invasion chamber), HFLS-RA; assay type: cell-based, human; details: 24 hours, 5 μM or 10 μM
Protocol: The values presented are the mean±SEM (n=2).
Cell migration assays were performed with Corning invasion chambers with Matrigel matrix (Fisher Scientific). The lower chamber contained compounds (e.g., VR23 or HCQ) and FBS as a chemo-attractant. The upper chamber was loaded with cells in FBS-free medium. The analysis of the trans-well inserts were carried out as described previously^24. After 24 hours of incubation, the trans-well inserts were removed, and then the remaining media and cells on the upper chamber were also removed from the top of the membrane with a cotton swab. The trans-well inserts were placed into wells containing 1 mL of 70% ethanol for 10 minutes to fix the cells. The residual ethanol was carefully removed with a cotton swab. Cells on the trans-well insert membrane were then air-dried at room temperature for 15 minutes. The trans-well insert containing cells were placed in 1 mL of 0.2% crystal violet for 10 minutes to stain. The excessive crystal violet was carefully removed from the membrane with a cotton swab. Subsequently, cells on the trans-well membrane were air-dried at room temperature prior to analysis under an inverted microscope. Images (10×) were captured at 5 different fields. The average number of cells that migrated through the membrane towards the chemo-attractant were determined. […]

[2] = system: CQ-sensitive P. falciparum 3D7; assay: Anti-parasitic assay (SYBR Green I), 3D7 strain; assay type: cell-based; details: Plasmodium falciparum, 3D7, 48 h
Protocol: The CQ-resistant P. falciparum ItG and the CQ-sensitive 3D7 strains were maintained and assays carried out as described previously^25. Briefly, P. falciparum strains were maintained in RPMI 1640 culture medium supplemented with 10% human serum, 25 mM HEPES, gentamicin, and 50 μM of hypoxanthine. The anti-parasitic assay was carried out as described previously^25. Briefly, a compound gradient was generated across a 96-well assay plate; a constant number of parasites added in 50 μL of the culture medium; allowed to grow for 48 hours; and followed by the measurement of DNA amounts (i.e., fluorescence) using SYBR Green I. The IC50 value is the 50% point between alive and dead for which a three-parameter fit was used.
VR23 is a derivative of CQ; a well-known anti-malarial drug. […] ItG and […] P. falciparum strains are CQ-resistant and CQ-sensitive strains, respectively. IC50 values were calculated by S.E.M (Table 2).

[3] = system: BALB/c mice with ALI caused by LPS; assay: LPS-induced acute lung injury in mice, bronchoalveolar fluid cell counts and TNF-α; assay type: in vivo, mouse; details: 24 hours, VR23 30 mg/kg intraperitoneally
Source text: as §1
Six to eight week old female BALB/c mice strain 028 (Charles River Laboratories, QC, Canada) were fed regularly with laboratory chow and water upon arrival at the Laurentian University Animal Care Facility (Sudbury, ON, Canada). To determine a useful dose of LPS, three mice per group were treated for 24 hours with the following three different conditions: (i) no LPS, (ii) 0.25 mg of LPS per kg of body weight, and (iii) 0.50 mg of LPS per kg of body weight. […] After the animals were sacrificed, the bronchoalveolar lavage fluid (BALF) of each mouse was collected and analyzed for LPS-induced inflammatory responses. […] Bronchoalveolar lavage fluid was collected and the number of cells infiltrated into the bronchoalveolar fluid were counted (FIG. 2). […]
Toward this goal, a useful LPS dose to induce TNF-α in the mouse bronchoalveolar fluid was first obtained. […] To illustrate the anti-inflammatory property of VR23, the level of TNF-α in the BALF was measured at 24-hour post-treatment. […] The levels of TNF-α were determined at 24-hour post-LPS stimulation (0.4 mg/kg), in the absence (controls) or presence of DEX (4 mg/kg) or VR23 (30 mg/kg).

Compound: O=[N+]([O-])c1ccc(S(=O)(=O)N2CCN(c3ccnc4cc(Cl)ccc34)CC2)c([N+](=O)[O-])c1 [VR23, 7-chloro-4-(4-(2,4-dinitrophenylsulfonyl)piperazin-1-yl)quinoline]
- secretion of IL-6 [1]: substantially reduced the secretion of IL-6
- cell migration promoted by 10% FBS (HFLS-RA cell migration): completely prevents cell migration
- IC50 [2]: 416 nM
- total number of cells recruited into the bronchoalveolar space ([3]; LPS 0.4 mg/kg intranasally): completely prevented
- level of TNF-α in bronchoalveolar lavage fluid ([3]; LPS 0.4 mg/kg): effectively reduces the level of TNF-α
